One experiment deals with mutant BRAF kinase (Homo sapiens (Human), UniProt P15056, V600E). The conditions noted are these: read-out: BRAF V600E Kd, class symbols.
Experiment [1] has as its system panel of 290 distinct kinases (321 in the larger panel), excluding mutant variants.
Procedure: The liganded beads were blocked with excess biotin and washed with blocking buffer (SeaBlock (Pierce), 1% BSA, 0.05% Tween 20, 1 mM DTT) to remove unbound ligand and to reduce non-specific binding. […] Test compounds were prepared as 100× stocks in DMSO and rapidly diluted into the aqueous environment. DMSO was added to control assays lacking a test compound. Primary screen interactions were performed in polypropylene 384-well plates in a final volume of 34 μL, while Kd determinations were performed in polystyrene 96-well plates in a final volume of 135 μL. […] The kinase concentration in the eluates was measured by quantitative PCR. Each kinase was tested individually against each compound. KdS were determined using eleven serial threefold dilutions. A selectivity score, which is a quantitative measure of selectivity of a compound against a panel of enzymes, may be calculated for a compound by dividing the number of enzymes for which a compound meets a set criteria, (for example, a binding constant of 100 nM or less), by the total number of enzymes tested. […] (Note, for those compounds tested in a larger kinase panel, as indicated by an asterisk (*) next to the S35 score, the divisor is 321 (i.e. the larger panel contains 321 distinct kinases, excluding mutant variants.)).
The mark [2] stands for this setting: kinase selectivity score, 290 distinct kinases, class symbols.
Setting [3] is: no asterisk: panel of 290 distinct kinases.

Consider 29 compounds from patent US9730937B2, “RAF kinase modulator compounds and methods of use thereof” (AMBIT BIOSCIENCES CORPORATION, priority 2008, dated 2017).

For orientation: Kd means the free concentration of one partner at which half of the binding sites on the other are occupied at equilibrium, for simple one-to-one binding.

Structures can show the parent of a compound that is named as a salt. Where two headings read alike, the source gives them in different places.

Chain of mutant BRAF kinase (P15056 whole entry V600E): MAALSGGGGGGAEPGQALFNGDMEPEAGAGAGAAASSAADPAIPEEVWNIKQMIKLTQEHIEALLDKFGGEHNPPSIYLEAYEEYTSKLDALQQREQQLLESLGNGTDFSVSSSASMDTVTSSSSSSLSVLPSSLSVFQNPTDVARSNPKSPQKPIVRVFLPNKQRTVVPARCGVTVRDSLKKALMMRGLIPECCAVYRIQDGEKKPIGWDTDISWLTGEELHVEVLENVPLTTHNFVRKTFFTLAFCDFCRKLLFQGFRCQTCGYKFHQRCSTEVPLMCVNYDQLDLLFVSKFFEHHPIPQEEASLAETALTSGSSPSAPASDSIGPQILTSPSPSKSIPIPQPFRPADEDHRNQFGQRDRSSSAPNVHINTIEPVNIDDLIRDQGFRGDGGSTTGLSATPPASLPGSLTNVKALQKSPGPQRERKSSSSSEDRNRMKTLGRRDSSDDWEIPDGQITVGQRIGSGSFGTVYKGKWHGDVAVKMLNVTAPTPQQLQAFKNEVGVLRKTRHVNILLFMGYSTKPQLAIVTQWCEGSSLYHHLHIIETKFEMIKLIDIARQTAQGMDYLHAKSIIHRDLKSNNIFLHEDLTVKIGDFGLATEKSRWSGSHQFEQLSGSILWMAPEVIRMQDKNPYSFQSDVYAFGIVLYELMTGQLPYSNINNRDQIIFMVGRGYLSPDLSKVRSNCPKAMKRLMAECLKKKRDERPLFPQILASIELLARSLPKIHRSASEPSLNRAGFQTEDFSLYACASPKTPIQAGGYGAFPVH

In the case of `COCCOc1cc2ncnc(Oc3cccc(NC(=O)Nc4cc(C(C)(C)C)on4)c3)c2cc1OC` [Ex 7, 1-(5-tert-Butylisoxazol-3-yl)-3-{3-[6-methoxy-7-(2-methoxyethoxy)quinazolin-4-yloxy]phenyl}urea hydrochloride], on mutant BRAF kinase, the Kd is less than 250 nM. In addition, the S35 entry in experiment [1] (setting [2]) is “D (D > 0.40)”.

Take `COCCOc1cc2ncnc(Oc3cccc(NC(=O)Nc4cc(C(C)(C)C)on4)c3)c2cc1OCCOC` [Ex 12, 1-{3-[6,7-bis(2-methoxyethoxy)quinazolin-4-yloxy]phenyl}-3-(5-tert-butylisoxazol-3-yl)urea hydrochloride]: the Kd at mutant BRAF kinase is less than 250 nM. Moreover, the S35 result in experiment [1] (setting [2]) was “C (0.20 < C ≦ 0.40)”.

With `CC(C)(C)c1cc(NC(=O)Nc2cccc(Oc3ncnc4cc5c(cc34)OCCO5)c2)no1` [Ex 14, 1-(5-tert-butylisoxazol-3-yl)-3-[3-(7,8-dihydro-[1,4]dioxino[2,3-g]quinazolin-4-yloxy)phenyl]urea hydrochloride], at mutant BRAF kinase, the Kd is less than 250 nM. For the same compound, the S35 result in experiment [1] (setting [2]) was “C (0.20 < C ≦ 0.40)”.

On to `COCCOc1cc2c(Oc3cccc(NC(=O)Nc4cc(C(C)(C)C)on4)c3)ncnc2cc1OC` [Ex 15, 1-(5-tert-butylisoxazol-3-yl)-3-{3-[7-methoxy-6-(2-methoxyethoxy)quinazolin-4-yloxy]phenyl}urea hydrochloride], for which the dissociation constant Kd at mutant BRAF kinase is less than 250 nM. The S35 result in experiment [1] (setting [2]) is given as “C (0.20 < C ≦ 0.40)”.

In the case of `COc1cc2ncnc(Oc3cccc(NC(=O)Nc4cc(C(C)(C)C)on4)c3)c2cc1OCCN1CCC(CO)CC1` [Ex 17, 1-(5-tert-butylisoxazol-3-yl)-3-(3-(6-(2-(4-(hydroxymethyl)piperidin-1-yl)ethoxy)-7-methoxyquinazolin-4-yloxy)phenyl)urea], at mutant BRAF kinase, the equilibrium dissociation constant (Kd) is less than 250 nM. The S35 entry in experiment [1] (setting [2]) was “C (0.20 < C ≦ 0.40)”.

With `COc1cc2ncnc(Oc3cccc(NC(=O)Nc4cc(C(C)(C)C)on4)c3)c2cc1OCCN1CCN(C)CC1` [Ex 18, 1-(5-tert-butylisoxazol-3-yl)-3-(3-(7-methoxy-6-(2-(4-methylpiperazin-1-yl)ethoxy)quinazolin-4-yloxy)phenyl)urea], the Kd on mutant BRAF kinase was less than 250 nM. For the same compound, the S35 entry in experiment [1] (setting [2]) was “D (D > 0.40)”.

For the compound `COc1cc2ncnc(Oc3cccc(NC(=O)Nc4cc(C(C)(C)C)on4)c3)c2cc1OCCN1CCN(CCO)CC1` [Ex 19, 1-(5-tert-butylisoxazol-3-yl)-3-(3-(6-(2-(4-(2-hydroxyethyl)piperazin-1-yl)ethoxy)-7-methoxyquinazolin-4-yloxy)phenyl)urea], at mutant BRAF kinase, the Kd was less than 250 nM. Moreover, the S35 entry in experiment [1] (setting [2]) is listed as “D (D > 0.40)”.

For the compound `COc1cc2ncnc(Oc3cccc(NC(=O)Nc4cc(C(C)(C)C)on4)c3)c2cc1OCCN1CCOCC1` [Ex 20, 1-(5-tert-butylisoxazol-3-yl)-3-(3-(7-methoxy-6-(2-morpholinoethoxy)quinazolin-4-yloxy)phenyl)urea], the equilibrium dissociation constant (Kd) at mutant BRAF kinase was less than 250 nM. Also, the S35 entry in experiment [1] (setting [2]) was “C (0.20 < C ≦ 0.40)”.

Take `COc1cc2ncnc(Oc3cccc(NC(=O)Nc4cc(C(C)(C)C)on4)c3)c2cc1OCCCN1CCN(C)CC1` [Ex 21, 1-(5-tert-butylisoxazol-3-yl)-3-(3-(7-methoxy-6-(3-(4-methylpiperazin-1-yl)propoxy)quinazolin-4-yloxy)phenyl)urea]: the Kd at mutant BRAF kinase was less than 250 nM. Also, the S35 result in experiment [1] (setting [2]) is reported as “D (D > 0.40)”.

Turning to `COc1cc2ncnc(Oc3cccc(NC(=O)Nc4cc(C(C)(C)C)on4)c3)c2cc1OCCCN1CCCCC1` [Ex 23, 1-(5-tert-butylisoxazol-3-yl)-3-(3-(7-methoxy-6-(3-(piperidin-1-yl)propoxy)quinazolin-4-yloxy)phenyl)urea], the Kd at mutant BRAF kinase is less than 250 nM. In addition, in experiment [1] (setting [2]), the S35 entry is recorded as “D (D > 0.40)”.

As for `COc1cc2ncnc(Oc3cccc(NC(=O)Nc4cc(C(C)(C)C)on4)c3)c2cc1OCCCN1CCC(CO)CC1` [Ex 24, 1-(5-tert-butylisoxazol-3-yl)-3-(3-(6-(3-(4-(hydroxymethyl)piperidin-1-yl)propoxy)-7-methoxyquinazolin-4-yloxy)phenyl)urea], the dissociation constant (Kd) on mutant BRAF kinase was less than 250 nM. Further, in experiment [1] (setting [2]), the S35 entry was “D (D > 0.40)”.

Regarding `COc1cc2ncnc(Oc3cccc(NC(=O)Nc4cc(C(C)(C)C)on4)c3)c2cc1OCCCN1CCN(S(C)(=O)=O)CC1` [Ex 25, 1-(5-tert-butylisoxazol-3-yl)-3-(3-(7-methoxy-6-(3-(4-(methylsulfonyl)piperazin-1-yl)propoxy)quinazolin-4-yloxy)phenyl)urea], on mutant BRAF kinase, the Kd was less than 250 nM. Besides, the S35 entry in experiment [1] (setting [2]) was “D (D > 0.40)”.

As to `COc1cc2c(Oc3cccc(NC(=O)Nc4cc(C(C)(C)C)on4)c3)ncnc2cc1OCCCN1CCOCC1` [Ex 27, 1-(5-tert-butylisoxazol-3-yl)-3-(3-(6-methoxy-7-(3-morpholinopropoxy)quinazolin-4-yloxy)phenyl)urea], the Kd at mutant BRAF kinase was less than 250 nM. In experiment [1] (setting [2]), the S35 result is listed as “D (D > 0.40)”.

For the compound `COc1cc2c(Oc3cccc(NC(=O)Nc4cc(C(C)(C)C)on4)c3)ncnc2cc1OCCCN1CCC(CO)CC1` [Ex 29], the Kd at mutant BRAF kinase is less than 250 nM. In experiment [1] (setting [2]), the S35 entry was “D (D > 0.40)”.

Consider `COc1cc2c(Oc3cccc(NC(=O)Nc4cc(C(C)(C)C)on4)c3)ncnc2cc1OCCCN1CCC(O)C1` (stereo not drawn) [Ex 31, 1-(5-tert-butyl-isoxazol-3-yl)-3-(3-{7-[3-(3-hydroxy-pyrrolidin-1-yl)-propoxy]-6-methoxy-quinazolin-4-yloxy}-phenyl)-urea], for which the Kd at mutant BRAF kinase was less than 250 nM. In addition, in experiment [1] (setting [2]), the S35 result is “D (D > 0.40)”.

For `COc1cc2c(Oc3cccc(NC(=O)Nc4cc(C(C)(C)C)on4)c3)ncnc2cc1OCCCN1CCN(S(C)(=O)=O)CC1` [Ex 32, 1-(5-tert-butylisoxazol-3-yl)-3-(3-(6-methoxy-7-(3-(4-(methylsulfonyl)piperazin-1-yl)propoxy)quinazolin-4-yloxy)phenyl)urea], on mutant BRAF kinase, the dissociation constant (Kd) was less than 250 nM. In addition, the S35 result in experiment [1] (setting [2]) was “D (D > 0.40)”.

In the case of `CCOc1cc2ncnc(Oc3cccc(NC(=O)Nc4cc(C(C)(C)C)nn4-c4ccccc4)c3)c2cc1OC` [Ex 387, 1-(3-tert-butyl-1-phenyl-1H-pyrazol-5-yl)-3-(3-(7-ethoxy-6-methoxyquinazolin-4-yloxy)phenyl)urea], the S35 entry in experiment [1] (setting [3]) is given as “D (D > 0.40)”.

In the case of `CCOc1cc2ncnc(Sc3cccc(NC(=O)Nc4cc(C(C)(C)F)no4)c3)c2cc1OC` [Ex 389, 1-(3-(7-ethoxy-6-methoxyquinazolin-4-ylthio)phenyl)-3-(3-(2-fluoropropan-2-yl)isoxazol-5-yl)urea], in experiment [1] (setting [3]), the S35 result was “C (0.20 < C ≦ 0.40)”.

For `CCOc1cc2c(Oc3cccc(NC(=O)Nc4cc(C(C)(C)C)nn4-c4ccccc4)c3)ncnc2cc1OC` [Ex 390, 1-(3-tert-butyl-1-phenyl-1H-pyrazol-5-yl)-3-(3-(6-ethoxy-7-methoxyquinazolin-4-yloxy)phenyl)urea], the S35 result in experiment [1] (setting [3]) was “D (D > 0.40)”.

As for `CCOc1cc2c(Oc3cccc(NC(=O)Nc4cc(C(F)(F)F)nn4-c4ccccc4)c3)ncnc2cc1OC` [Ex 391, 1-(3-(6-ethoxy-7-methoxyquinazolin-4-yloxy)phenyl)-3-(1-phenyl-3-(trifluoromethyl)-1H-pyrazol-5-yl)urea], the S35 result in experiment [1] (setting [3]) is “C (0.20 < C ≦ 0.40)”.

Turning to `CCOc1cc2c(Oc3cccc(NC(=O)Nc4cc(C(C)(C)F)no4)c3)ncnc2cc1OC` [Ex 392, 1-(3-(6-ethoxy-7-methoxyquinazolin-4-yloxy)phenyl)-3-(3-(2-fluoropropan-2-yl)isoxazol-5-yl)urea], in experiment [1] (setting [3]), the S35 entry is reported as “C (0.20 < C ≦ 0.40)”.

On to `CCOc1cc2c(Oc3cccc(NC(=O)Nc4cc(C(C)(CF)CF)on4)c3)ncnc2cc1OC` [Ex 393, 1-(5-(1,3-difluoro-2-methylpropan-2-yl)isoxazol-3-yl)-3-(3-(6-ethoxy-7-methoxyquinazolin-4-yloxy)phenyl)urea], for which the S35 entry in experiment [1] (setting [3]) is given as “C (0.20 < C ≦ 0.40)”.

For `CCOc1cc2c(Sc3cccc(NC(=O)Nc4cc(C(C)(C)F)no4)c3)ncnc2cc1OC` [Ex 394, 1-(3-(6-ethoxy-7-methoxyquinazolin-4-ylthio)phenyl)-3-(3-(2-fluoropropan-2-yl)isoxazol-5-yl)urea], the S35 result in experiment [1] (setting [3]) was “C (0.20 < C ≦ 0.40)”.

`CCOc1cc2c(Sc3cccc(NC(=O)Nc4cc(C(C)(CF)CF)on4)c3)ncnc2cc1OC` [Ex 395, 1-(5-(1,3-difluoro-2-methylpropan-2-yl)isoxazol-3-yl)-3-(3-(6-ethoxy-7-methoxyquinazolin-4-ylthio)phenyl)urea]: the S35 entry in experiment [1] (setting [3]) is listed as “C (0.20 < C ≦ 0.40)”.

Turning to `COc1cc2c(Oc3cccc(NC(=O)Nc4cc(C(F)(F)F)nn4-c4ccccc4)c3)ncnc2cc1OCCN1CCOCC1` [Ex 396, 1-(3-(6-Methoxy-7-(2-morpholinoethoxy)quinazolin-4-yloxy)phenyl)-3-(1-phenyl-3-(trifluoromethyl)-1H-pyrazol-5-yl)urea], the S35 result in experiment [1] (setting [3]) is recorded as “C (0.20 < C ≦ 0.40)”.

Regarding `COc1cc2ncnc(Oc3cc(NC(=O)Nc4cc(C(F)(F)F)nn4-c4ccccc4)ccc3F)c2cc1OC` [Ex 397, 1-(3-(6,7-Dimethoxyquinazolin-4-yloxy)-4-fluorophenyl)-3-(1-phenyl-3-(trifluoromethyl)-1H-pyrazol-5-yl)urea], the S35 result in experiment [1] (setting [3]) was “C (0.20 < C ≦ 0.40)”.

Consider `CCc1cc(NC(=O)Nc2cccc(Sc3ncnc4cc(OC)c(OC)cc34)c2)n(-c2ccccc2)n1` [Ex 399, 1-(3-(6,7-dimethoxyquinazolin-4-ylthio)phenyl)-3-(3-ethyl-1-phenyl-1H-pyrazol-5-yl)urea], for which the S35 entry in experiment [1] (setting [3]) is “C (0.20 < C ≦ 0.40)”.

As for `CCOc1cc2ncnc(Oc3cccc(NC(=O)Nc4cc(C(F)(F)F)nn4-c4ccccc4)c3)c2cc1OC` [Example 384, 1-(3-(7-ethoxy-6-methoxyquinazolin-4-yloxy)phenyl)-3-(1-phenyl-3-(trifluoromethyl)-1H-pyrazol-5-yl)urea], the S35 entry in experiment [1] (setting [3]) is listed as “C (0.20 < C ≦ 0.40)”.

`CCOc1cc2ncnc(Sc3cccc(NC(=O)Nc4cc(C(C)(CF)CF)on4)c3)c2cc1OC` [Example 388, 1-(5-(1,3-difluoro-2-methylpropan-2-yl)isoxazol-3-yl)-3-(3-(7-ethoxy-6-methoxyquinazolin-4-ylthio)phenyl)urea]: in experiment [1] (setting [3]), the S35 result is “C (0.20 < C ≦ 0.40)”.
